Experimental data as given in publication PMC7069944, “Amino acid levels determine metabolism and CYP450 function of hepatocytes and hepatoma cell lines” (Nature Communications, 2020).
Several values for one entry are separate records, joined by “and”; a condition that tells them apart may be missing. Identical values can stand only once.

How the values were obtained:
[1] = tested on: HC6X; test: Repeated-exposure DILI training compounds, resazurin conversion, HC6X; conditions: replicates, listed as Ximelatagran
Procedure: (§1) To evaluate the ability to predict hepatotoxicity, we adapted the differentiation assays to a 384-well format. […] As a readout, we evaluated cell viability by resazurin conversion and correlated the results to therapeutic doses (Cmax values).
(§2) PSCs were differentiated in a 384-well format. […] As a negative control, 41 wells were left untreated. HepG2 were seeded at 40,000 cells per well. […] Cells were fixed with 4% PFA. […] Drugs were administrated after 8 h of attachment.

[2] = tested on: HepG2; test: Repeated-exposure DILI training compounds, resazurin conversion, HepG2; conditions: replicates, listed as Ximelatagran
Procedure: as §1, §2

[3] = tested on: HC3X; test: Repeated-exposure DILI training compounds, resazurin conversion, HC3X; conditions: for resazurin conversion (Supplementary Figure 7D): HC3X AAGLY D40, replicates, listed as Ximelatagran
Procedure: as §1, §2

[4] = tested on: HLC; test: Repeated-exposure DILI training compounds, resazurin conversion, HLC; conditions: replicates, listed as Ximelatagran
Procedure: as §1, §2

CCOC(=O)CN[C@@H](C(=O)N1CC[C@H]1C(=O)NCc1ccc(/C(N)=N\O)cc1)C1CCCCC1 [ximelagatran]
resazurin conversion (Supplementary Figure 7D) ([1]; HC6X AAGLY D40, 10 uM): 93.8 and 58.7 and 78.1 and 118.1 | resazurin conversion (Supplementary Figure 7D) ([1]; HC6X AAGLY D40, 30 uM): 71.1 and 54.3 and 108.4 and 77.4 and 109.2 and 98.7 | resazurin conversion (Supplementary Figure 7D) ([1]; HC6X AAGLY D40, 50 uM): 68.8 and 53.6 and 125.9 and 98.4 and 222.1 and 82.6 | resazurin conversion (Supplementary Figure 7D) ([1]; HC6X AAGLY D40, 100 uM): 99.7 and 88.3 and 135.4 and 113.5 and 107.4 and 93.9 | resazurin conversion (Supplementary Figure 7D) ([1]; HC6X AAGLY D40, 300 uM): 82 and 93.2 and 129.1 and 140.3 and 141.2 and 166.5 | resazurin conversion (Supplementary Figure 7D) ([1]; HC6X AAGLY D40, 500 uM): 65.3 and 103.3 and 98.2 and 91.7 and 122.8 and 148.3 | resazurin conversion (Supplementary Figure 7D) ([1]; HC6X AAGLY D40, 1000 uM): 71.6 and 76.5 and 78.4 and 144 and 115.7 and 139.1 | resazurin conversion (Supplementary Figure 7D) ([1]; HC6X AAGLY D40, 2000 uM): 61.7 and 53.9 and 78.6 and 67 and 113.9 and 90 | resazurin conversion (Supplementary Figure 7D) ([1]; HC6X AAGLY D40, 4000 uM): 54.4 and 81.3 and 84.4 and 85.7 and 55.2 and 56.8 | resazurin conversion (Supplementary Figure 7D) ([1]; HC6X AAGLY D40 Remove dox, 30 uM): 72.9 and 78.3 and 89.9 and 101.5 and 95.4 and 95.8 | resazurin conversion (Supplementary Figure 7D) ([1]; HC6X AAGLY D40 Remove dox, 50 uM): 55.3 and 86.1 and 70.5 and 85.8 and 92.1 and 68.6 | resazurin conversion (Supplementary Figure 7D) ([1]; HC6X AAGLY D40 Remove dox, 100 uM): 82.1 and 85 and 79 and 110.7 and 88.3 and 96.6 | resazurin conversion (Supplementary Figure 7D) ([1]; HC6X AAGLY D40 Remove dox, 300 uM): 99.4 and 92.8 and 102.5 and 91.4 and 94.8 and 77.9 | resazurin conversion (Supplementary Figure 7D) ([1]; HC6X AAGLY D40 Remove dox, 500 uM): 78.1 and 81.7 and 105.3 and 97 and 101.1 and 82.7 | resazurin conversion (Supplementary Figure 7D) ([1]; HC6X AAGLY D40 Remove dox, 1000 uM): 77.2 and 89.1 and 81.5 and 96.6 and 108.9 and 116.8 | resazurin conversion (Supplementary Figure 7D) ([1]; HC6X AAGLY D40 Remove dox, 2000 uM): 95.3 and 105.5 and 72.8 and 94.8 and 76.2 and 80.9 | resazurin conversion (Supplementary Figure 7D) ([1]; HC6X AAGLY D40 Remove dox, 4000 uM): 46.6 and 40.3 and 96 and 68.1 and 83.6 and 42.4 | resazurin conversion (Supplementary Figure 7D) ([2]; HepG2 AAGLY D30, 10 uM): 94.6 and 101.9 and 93.6 | resazurin conversion (Supplementary Figure 7D) ([2]; HepG2 AAGLY D30, 30 uM): 92.6 and 98.4 and 83.3 and 96.4 and 96.6 and 94.8 | resazurin conversion (Supplementary Figure 7D) ([2]; HepG2 AAGLY D30, 50 uM): 93.8 and 101.4 and 83.8 and 100.6 and 100.8 and 103 | resazurin conversion (Supplementary Figure 7D) ([2]; HepG2 AAGLY D30, 100 uM): 87.1 and 96.4 and 79.9 and 96 (2×) and 99.8 | resazurin conversion (Supplementary Figure 7D) ([2]; HepG2 AAGLY D30, 300 uM): 79.2 and 92.1 and 83.1 and 91.5 (2×) and 86.4 | resazurin conversion (Supplementary Figure 7D) ([2]; HepG2 AAGLY D30, 500 uM): 73.8 and 82.7 and 72.5 and 77.3 and 81.8 and 90.8 | resazurin conversion (Supplementary Figure 7D) ([2]; HepG2 AAGLY D30, 1000 uM): 33.4 and 32.8 and 32.2 and 33.5 and 33 and 34 | resazurin conversion (Supplementary Figure 7D) ([2]; HepG2 AAGLY D30, 2000 uM): 32.1 and 33.4 and 32.3 and 33 and 31.5 and 35.4 | resazurin conversion (Supplementary Figure 7D) ([2]; HepG2 AAGLY D30, 4000 uM): 32.2 and 33.1 and 31.8 and 32.9 (2×) and 31.4 | resazurin conversion (Supplementary Figure 7D) ([2]; HepG2 CTL D7, 10 uM): 100 | resazurin conversion (Supplementary Figure 7D) ([2]; HepG2 CTL D7, 30 uM): 113.6 and 106.8 and 92.5 and 99.4 and 103.9 and 98.2 | resazurin conversion (Supplementary Figure 7D) ([2]; HepG2 CTL D7, 50 uM): 100.3 and 102 and 94.9 and 85.4 and 97.6 and 93 | resazurin conversion (Supplementary Figure 7D) ([2]; HepG2 CTL D7, 100 uM): 99.5 and 95.1 and 87 and 84.8 and 92.1 and 91.7 | resazurin conversion (Supplementary Figure 7D) ([2]; HepG2 CTL D7, 300 uM): 98.7 and 94.5 and 90.1 and 84 and 87.6 and 84.8 | resazurin conversion (Supplementary Figure 7D) ([2]; HepG2 CTL D7, 500 uM): 86.4 and 89.2 and 85.2 and 81.4 and 85.9 and 81.5 | resazurin conversion (Supplementary Figure 7D) ([2]; HepG2 CTL D7, 1000 uM): 71.2 and 56.7 and 60.3 and 67.6 and 70.2 and 66 | resazurin conversion (Supplementary Figure 7D) ([2]; HepG2 CTL D7, 2000 uM): 35.7 and 15 and 22 and 29.6 and 28.3 and 27.1 | resazurin conversion (Supplementary Figure 7D) ([2]; HepG2 CTL D7, 4000 uM): 7.9 (2×) and 7.7 (3×) and 8 | resazurin conversion (Supplementary Figure 7D) ([3]; 10 uM): 103.6 and 112.1 and 116.7 and 110.7 and 88 and 80.4 | resazurin conversion (Supplementary Figure 7D) ([3]; 30 uM): 112.5 and 93.4 and 100.9 and 65.5 and 110.1 and 86 | resazurin conversion (Supplementary Figure 7D) ([3]; 50 uM): 112.6 and 97.1 and 99.6 and 78.9 and 96.7 and 79.4 | resazurin conversion (Supplementary Figure 7D) ([3]; 100 uM): 99 and 94.2 and 111.5 and 113 and 97.2 and 95.7 | resazurin conversion (Supplementary Figure 7D) ([3]; 300 uM): 105.9 and 98.6 and 86.6 and 80.1 and 95.6 and 93.9 | resazurin conversion (Supplementary Figure 7D) ([3]; 500 uM): 93.3 and 104.7 and 99.6 and 103.7 and 88.7 and 115 | resazurin conversion (Supplementary Figure 7D) ([3]; 1000 uM): 89.5 and 109.6 and 93 and 88.2 and 108.4 and 91.9 | resazurin conversion (Supplementary Figure 7D) ([3]; 2000 uM): 61.4 and 104.7 and 97.3 and 97.1 and 64.3 and 60.4 | resazurin conversion (Supplementary Figure 7D) ([3]; 4000 uM): 43.9 and 48.4 and 38 and 42.8 and 47.8 and 45 | IC50/Cmax ([3]; human): 2438.67 | resazurin conversion (Supplementary Figure 7D) ([4]; HLC AAGLY D40, 30 uM): 87.9 and 61.4 and 89.7 and 86.8 and 95.5 and 101.7 | resazurin conversion (Supplementary Figure 7D) ([4]; HLC AAGLY D40, 50 uM): 102.7 and 110.5 and 84 and 85.7 and 101.4 and 47.2 | resazurin conversion (Supplementary Figure 7D) ([4]; HLC AAGLY D40, 100 uM): 101.8 and 83.1 and 91.6 and 97.8 and 108.1 and 71.2 | resazurin conversion (Supplementary Figure 7D) ([4]; HLC AAGLY D40, 300 uM): 102 and 100.4 and 103.4 and 99.6 and 91.1 and 43.4 | resazurin conversion (Supplementary Figure 7D) ([4]; HLC AAGLY D40, 500 uM): 103.1 and 102.1 and 106.2 and 106.4 and 103.3 and 93.1 | resazurin conversion (Supplementary Figure 7D) ([4]; HLC AAGLY D40, 1000 uM): 124.2 and 94.4 and 100.6 and 122 and 108.3 and 107.9 | resazurin conversion (Supplementary Figure 7D) ([4]; HLC AAGLY D40, 2000 uM): 74 and 131.7 and 126.4 and 135.7 and 116.8 and 129.6 | resazurin conversion (Supplementary Figure 7D) ([4]; HLC AAGLY D40, 4000 uM): 129.4 and 115 and 25.5 and 112.7 and 127.1 and 50.9 | resazurin conversion (Supplementary Figure 7D) ([4]; HLC LDM D40, 10 uM): 103 and 119.6 and 106.5 and 118.8 | resazurin conversion (Supplementary Figure 7D) ([4]; HLC LDM D40, 30 uM): 98.9 and 98.8 and 106 and 104.1 and 100.4 and 102.4 | resazurin conversion (Supplementary Figure 7D) ([4]; HLC LDM D40, 50 uM): 120.6 and 118.1 and 72.7 and 111.9 and 69.1 and 123.9 | resazurin conversion (Supplementary Figure 7D) ([4]; HLC LDM D40, 100 uM): 93.8 and 126.7 and 78.4 and 121.1 and 87.3 and 126.3 | resazurin conversion (Supplementary Figure 7D) ([4]; HLC LDM D40, 300 uM): 125.4 and 106 and 125.6 and 93.6 and 136.9 and 112.2 | resazurin conversion (Supplementary Figure 7D) ([4]; HLC LDM D40, 500 uM): 130.3 and 128.1 and 99.5 and 124.6 and 98 and 115.9 | resazurin conversion (Supplementary Figure 7D) ([4]; HLC LDM D40, 1000 uM): 132.9 and 140 and 126.4 and 146.9 and 116.4 and 158.5 | resazurin conversion (Supplementary Figure 7D) ([4]; HLC LDM D40, 2000 uM): 87.8 and 64.2 and 95.2 and 125.1 and 69.7 and 117.1 | resazurin conversion (Supplementary Figure 7D) ([4]; HLC LDM D40, 4000 uM): 52.7 and 74.5 and 71.5 and 69.4 and 112 and 163.8
